Measured values published in US20220023181A1, “PEROXIDE-LESS BIOPHOTONIC COMPOSITIONS AND METHODS” (KLOX TECHNOLOGIES LIMITED, priority 2015, published 2022).

Experiment: Dilution assay with ROS test assay (liposomes + fluorogenic α-tocopherol probe)
Conditions: Example 5 first round; illumination 5 or 9 min per sample
Description: For the dilution assay, an amount of a given gel composition is taken and mixed into a volume of PBS in order to dilute the gel. For example, to make a 10 mL solution ten times diluted, a 1 gram sample of the particular gel is mixed into 9 mL of PBS. Thereafter, depending on the make-up of the sample to be tested, an amount of a particular compound, for example urea peroxide (UP) or a particular salt, could be added in order to either boost an amount of the particular compound that was already in the sample to be tested or to test the effect of adding that given compound per se. With respect to adding UP in order to make test samples with various concentrations to be tested in a concomitant series of tests, an initial sample with a high concentration would be prepared from which aliquots would be taken and diluted down with PBS in order to the test samples with the various concentration of UP. In a multi-well plate, the given diluted sample are mixed with 19.1 μL of the liposome solution (to give a final liposome concentration of 15.4 mg/mL in the test sample) in order to provide a 2 mm thickness of the resulting paste-like mixture, this thickness being equivalent to a thickness of gel that would be spread on a patient or used in an in vitro assay. Also present in the sample-liposome mixture is a quantity of the chemical probe that is used in the reactive oxygen species (ROS) test assay (362.9 μL of the of the diluted gel (i.e., the given gel sample that is to be tested) is mixed with 19.1 μL of liposome-probe, as including the chemical probe in the sample-liposome mixture is to ensure that any ROS species will be afforded a maximal opportunity to interact with the probe and thus be detectable as having been generated as a result of any interaction that may occur in the gel composition upon it becoming activated. […] After the illumination is completed, a 100 μL to 300 μL aliquot of the sample-liposome transferred to a 96-well plate for conducting the ROS test (as further described in (iii) below). For the test samples, stock solutions of the samples were made and diluted such that direct comparisons could be made between the samples (e.g., for the measurement of reactive oxygen species).
The ROS test assay utilized in the experimental protocols of the Examples of the present disclosure is that which is described in Krumova et al. “How Lipid Unsaturation, Peroxyl Radical Partitioning, and Chromanol Lipophilic Tail Affect the Antioxidant Activity of a-Tocopherol: direct Visualization via High-Throughput Fluorescence Studies Conducted with Fluorogenic a-Tocopherol Analogues” (J. Am. Chem. Soc. 2012, vol. 134, pages 10102-10113). The assay utilizes highly sensitive fluorogenic α-tocopherol (TOH) analogues that undergo a 30-fold fluorescence intensity enhancement upon their reaction with peroxyl radicals that are generated due to the oxidation of the liposome membrane with ROS species that may be present in the reaction mixture. The assay utilizes a high-throughput microplate reader that relies on the high sensitivity of the TOH probes and provides a quantitative treatment of the temporal evolution of the fluorescence intensity thereby allowing for kinetic information to be obtained under the conditions being analyzed. The TOH analogues are two-segment receptor-reporter probes that consist of a chromanol moiety coupled to the meso position of a BODIPY fluorophore, either by an ester linker (the probe being called H2B-TOH) or via a methylene linker (the probe being called H2B-PMHC). The chromanol moiety quenches the emission of the fluorophore until it is oxidized following reaction with peroxyl radicals. […]

`NC(N)=O.OO` [S 23, urea peroxide] showed an ROS of 0.46 µM.
`NC(N)=O.OO` [S 28, urea peroxide] showed an ROS of 0.87 µM.
In the case of `NC(N)=O.OO` [S 22, urea peroxide], the ROS is reported as 0.49 µM.
Work on `NC(N)=O.OO` [S 26, urea peroxide] yielded an ROS of 0.72 µM.
With `NC(N)=O.OO` [S 21, urea peroxide] the ROS was 0.39 µM.
Compound `NC(N)=O.OO` [S 24, urea peroxide] has an ROS of 0.51 µM.
With `NC(N)=O.OO` [S 25, urea peroxide] the ROS was 0.56 µM.
`NC(N)=O.OO` [S 27, urea peroxide] showed an ROS of 0.75 µM.
With `NC(N)=O.OO` [S 29, urea peroxide] the ROS was 0.86 µM.
`NC(N)=O.OO` [S 20, urea peroxide] showed an ROS of 0.34 µM.
